# Experimental data reported in US20180362456A1, “NEW COMPOUNDS WITH ANTIOXIDANT AND ANTIAGING ACTIVITY” (EMS S/A, priority 2015, published 2018).
# Legend:
# Balb3T3 [1] = test: Lactate dehydrogenase (LDH) release, cell membrane permeability; format: cell-based; parameters: activity on cell membrane: dose or concentration left out as unconfirmed; conditions: for LDH release, % of total enzyme contained in the cells: 14 hours exposition
# Protocol: (§1) The citotoxicity of compounds described in examples 1 and 2 was tested with the test Neutral Red Uptake to determine the IC50 values. To better define the cytotoxic potential also the lactate dehydrogenase (LDH) release was tested to verify the action on cell membrane permeability. Test were performed according to DB-ALM Protocol n L39Balb3T3 Red Uptake cytotoxicity and ISO 10993-5:2009.
# free radicals [2] = test: Scavenger activity, DCA fluorimetric probe, UVA treatments; format: cell-based
# Protocol: (§2) The antioxidant power of compounds described in examples 1 and 2 was tested in two different tests, one for the scavenger activity and one for the antioxidant activity. The method is based on the fluorimetric probe 2′,7′-dichlorofluorescein diacetate (DCA) that becomes fluorescent only when it is oxidized by free radicals.
# free radicals [3] = test: Antioxidant activity, DCA fluorimetric probe, UVA treatments; format: cell-based
# Protocol: as §2
# [4] = Neutral Red Uptake cytotoxicity test; format: cell-based; conditions: mouse, Balb3T3 cells
# Protocol: as §1
# [5] = In vitro skin permeation, static Franz diffusion cells (OECD 428); format: in vitro ADME; conditions: 1% solution, 5 mg/cm2 on human skin, 24 hours, unocclusive
# Source text: The in vitro skin permeation experiments were developed and validated according to the Organization for Economic Cooperation and Development adopted guideline 428 (OECD guideline for the testing of chemicals. Skin absorption: in vitro method. Guideline 428 (Paris, April 2004, updated January 2011)). Briefly, static Franz diffusion cells were set up with human skin samples according with OECD and SCSS guidelines. A simple formulation containing 1% of compound of example 1 in solution was applied topically on human skin samples (5 mg/cm2) for 24 hours in an unocclusive conditions. At the end of the exposure time the Franz diffusion cells were dismantled and the distribution of the compound was measured on the skin surface, in the stratum corneum and in the rector fluid. An extraction method was developed and the day after the extraction process, all the samples were filtered through 0.22 μm membrane filter into HPLC vials. The samples of compounds of example 1, together with known concentration standards were assayed by HPLC-UV (Waters, USA). The average amount measured in the dermis was 2% of applied dose and in the receptor fluid was 3% of the applied dose. Therefore, the calculated average dermal absorption for compound 1 was 5%.
# Balb3T3 [6] = test: Neutral Red Uptake cytotoxicity test; format: cell-based
# Protocol: as §1
"LDH release, % of total enzyme contained in the cells (Balb3T3 [1]; 0.2 mM) [%]","LDH release, % of total enzyme contained in the cells (Balb3T3 [1]; 0.5 mM) [%]",average amount measured in the dermis [5],average amount measured in the receptor fluid [5],calculated average dermal absorption [5] [%],"LDH release, % of total enzyme contained in the cells (Balb3T3 [1]; 1 mM) [%]",Structure (SMILES),activity on cell membrane (Balb3T3 [1]),"reduction of the formation of free radicals (scavenger activity), on average (free radicals [2]; 0.004 mM, after 5 treatments with UVA) [%]","inhibition of free radical formation (antioxidant efficacy) (free radicals [3]; 0.1 mM effective dose, after 5 treatments UVA)",IC50 [4] [µM],reduction of free radical formation (scavenger action) (free radicals [2]; after first UVA treatment) [%],"inhibition at 25 µM (free radicals [3]; 0.025 mM, read-out: inhibition of free radical formation (antioxidant activity)) [%]",overall biocompatibility (Balb3T3 [6])
13.0,13.2,2 % of applied dose,3 % of the applied dose,5,,"C=CCSCC(N)C(=O)Oc1ccc(/C=C/c2cc(OC(=O)C(N)CSCC=C)cc(OC(=O)C(N)CSCC=C)c2)cc1.Cl.Cl.Cl (stereo not drawn) [Example 1, (E)-1,1′-((5-(4-((3-(allylthio)-2-ammoniopropanoyl)oxy)styryl)-1,3-phenylene)bis(oxy))bis(3-(allylthio)-1-oxopropan-2-aminium) Chloride]",not highlighted a specific activity on cell membrane,41,more than 50%,113,,,
,,,,,12.3,"C=CCSCC(NC(=O)C1CCC(=O)N1)C(=O)OC [Example 2, L-Pyroglutamyl-(R)-3-Allylsulfanyl-2-amino-propionic Acid Methyl Ester]",some slight activity on cell membrane,,,> 3000,23.5,25.6,very biocompatible
